Consider one compound from ChEMBL document CHEMBL6109121, “Discovery of Novel Sulfonylurea NLRP3 Inflammasome Inhibitor for the Treatment of Multiple Inflammatory Diseases” (J Med Chem, 2025).

By AUC(0-t) is commonly meant exposure summed from dosing to a finite time, without extrapolation to infinity. A lower AUC(0-t) goes with less exposure. As a reminder, the IC50 is the concentration that inhibits the measured activity by half. Usually Tmax stands for the time from dosing to the highest level. By half-life is commonly meant the time in which the quantity being followed falls by half. Lower therefore signals rapid decline.

The target of series [1] is Nlrp3/Pycard (Mus musculus) (UniProt Q8R4B8+Q9EPB4). Put plainly: Inhibition of NLRP3-ASC protein-protein interaction in LPS/ATP stimulated male C57BL/6J mouse BMDM cells by co-immunoprecipitation based Western blot analysis. Format: cell-based.
The nature of series [2]: AUClast in male ICR (CD-1) mouse at 20 mg/kg, po by LC-MS/MS analysis. The conditions noted are these: in vivo. Format: ADME, organism-based.
The test system of series [3] is Mus musculus. Put plainly: Antidiabetic activity in HFD-fed STZ-induced diabetic kidney disease male C57BL/6J mouse model assessed as decrease in IL-1beta level in serum at 20 mg/kg fed with high fat diet for 4 weeks followed by STZ administration for 5 days and measured 6 weeks post compound administration via gavage by ELISA. Format: functional, organism-based. In general terms: In an ELISA, binding on a coated surface is turned into a signal by an enzyme label.

Series [4] in a line: Drug uptake in heart of male C57BL/6J mouse at 20 mg/kg, po administered as single dose and measured after 8 hrs by LC-MS/MS analysis. Format: ADME, organism-based. The note with it: in vivo.
Series [5] has as its system Mus musculus. Put plainly: Anti-colitis activity in DSS-induced acute ulcerative colitis male C57BL/6J mouse model assessed as reduction in body weight loss at 5 mg/kg, po preadministered with DSS for 7 days followed by 3 days of drinking water and measured after 10 days of compound administration. The note with it: time 10.0 day. Format: functional, organism-based.
Series [6] is described as follows: AUClast in male ICR (CD-1) mouse at 5 mg/kg, iv by LC-MS/MS analysis. The conditions noted are these: in vivo. Format: ADME, organism-based.
For series [7], the system named is Mus musculus. Put plainly: Antidiabetic activity in HFD-fed STZ-induced diabetic kidney disease male C57BL/6J mouse model assessed as reduction in tubular basement membrane thickening in kidney at 20 mg/kg fed with high fat diet for 4 weeks followed by STZ administration for 5 days and measured 6 weeks post compound administration via gavage by histological analysis. Format: functional, organism-based.

Series [8] has as its system Mus musculus. Put plainly: Anti-colitis activity in DSS-induced acute ulcerative colitis male C57BL/6J mouse model assessed as reduction in crypt necrosis in colon at 0.2 to 5 mg/kg, po preadministered with DSS for 7 days followed by 3 days of drinking water and measured after 10 days of compound administration by H and E staining based analysis. Format: functional, organism-based. The conditions noted are these: dose 0.2-5 mg/kg, time 10.0 day.

Series [9] can be described thus: Drug uptake in lung of male C57BL/6J mouse at 20 mg/kg, po administered as single dose and measured after 8 hrs by LC-MS/MS analysis. Format: ADME, organism-based. The conditions noted are these: in vivo.
Series [10] is described as follows: Drug uptake in gastrointestinal tract of male C57BL/6J mouse at 20 mg/kg, po administered as single dose and measured after 8 hrs by LC-MS/MS analysis. Format: ADME, organism-based. The note with it: in vivo.
A further series concerns BMDM. Put plainly: Inhibition of AIM2 inflammasome activation in LPS/Poly dA:dT-stimulated male C57BL/6J mouse BMDM cells assessed as inhibition of IL-1beta secretion pretreated with LPS followed by compound addition for 4 hrs and measured after 4 hrs of Poly dA:dT addition by ELISA. Format: cell-based. The note with it: time 8.0 hrs.
A short description of series [11]: Drug uptake in brain of male C57BL/6J mouse at 20 mg/kg, po administered as single dose and measured after 8 hrs by LC-MS/MS analysis. Format: ADME, organism-based. The conditions noted are these: in vivo.
A short description of series [12]: Inhibition of NLRP3 inflammasome activation in LPS/ATP-stimulated male C57BL/6J mouse BMDM cells assessed as inhibition of IL-1beta secretion […] for 4 hrs followed by compound administration for 30 mins and measured after 1 hrs of ATP addition by ELISA. Format: cell-based.
For series [13], the system named is Mus musculus. Put plainly: Effect on HDL-C level in serum of HFD-fed STZ-induced diabetic kidney disease male C57BL/6J mouse model at 20 mg/kg fed with high fat diet for 4 weeks followed by STZ administration for 5 days and measured 6 weeks post compound administration via gavage. Format: functional, organism-based.
Series [14] has as its system Mus musculus. Put plainly: Effect on TNF-alpha level in serum of DSS-induced acute ulcerative colitis male C57BL/6J mouse model at 0.2 to 5 mg/kg, po preadministered with DSS for 7 days followed by 3 days of drinking water and measured after 10 days of compound administration by ELISA. Format: functional, organism-based. The note with it: dose 0.2-5 mg/kg, time 10.0 day.

Series [15] can be described thus: Inhibition of NLRP3 inflammasome activation in human THP-1 cells assessed as inhibition of IL-1beta release. Format: cell-based.
Series [16] is described as follows: Tmax in male ICR (CD-1) mouse at 20 mg/kg, po by LC-MS/MS analysis. Format: ADME, organism-based. The conditions noted are these: in vivo.
A short description of series [17]: Half-life in male ICR (CD-1) mouse at 20 mg/kg, po by LC-MS/MS analysis. The conditions noted are these: in vivo. Format: ADME, organism-based.
A short description of series [18]: Half-life in male ICR (CD-1) mouse at 5 mg/kg, iv by LC-MS/MS analysis. Format: ADME, organism-based. The conditions noted are these: in vivo.
The subject of series [19] is Mus musculus. Put plainly: Effect on TNF-alpha level in serum of HFD-fed STZ-induced diabetic kidney disease male C57BL/6J mouse model at 20 mg/kg fed with high fat diet for 4 weeks followed by STZ administration for 5 days and measured 6 weeks post compound administration via gavage by ELISA. Format: functional, organism-based.
The subject of series [20] is Mus musculus. Put plainly: Antidiabetic activity in HFD-fed STZ-induced diabetic kidney disease male C57BL/6J mouse model assessed as reduction in macrophage infiltration in kidney at 20 mg/kg fed with high fat diet for 4 weeks followed by STZ administration for 5 days and measured 6 weeks post compound administration via gavage by F4/80 immunostaining based analysis. Format: functional, organism-based.

Calls of active or inactive are those of the source. The rule behind the calls is not given here.

Sequence of Nlrp3/Pycard (Mus musculus) (Q8R4B8 whole entry, looked up): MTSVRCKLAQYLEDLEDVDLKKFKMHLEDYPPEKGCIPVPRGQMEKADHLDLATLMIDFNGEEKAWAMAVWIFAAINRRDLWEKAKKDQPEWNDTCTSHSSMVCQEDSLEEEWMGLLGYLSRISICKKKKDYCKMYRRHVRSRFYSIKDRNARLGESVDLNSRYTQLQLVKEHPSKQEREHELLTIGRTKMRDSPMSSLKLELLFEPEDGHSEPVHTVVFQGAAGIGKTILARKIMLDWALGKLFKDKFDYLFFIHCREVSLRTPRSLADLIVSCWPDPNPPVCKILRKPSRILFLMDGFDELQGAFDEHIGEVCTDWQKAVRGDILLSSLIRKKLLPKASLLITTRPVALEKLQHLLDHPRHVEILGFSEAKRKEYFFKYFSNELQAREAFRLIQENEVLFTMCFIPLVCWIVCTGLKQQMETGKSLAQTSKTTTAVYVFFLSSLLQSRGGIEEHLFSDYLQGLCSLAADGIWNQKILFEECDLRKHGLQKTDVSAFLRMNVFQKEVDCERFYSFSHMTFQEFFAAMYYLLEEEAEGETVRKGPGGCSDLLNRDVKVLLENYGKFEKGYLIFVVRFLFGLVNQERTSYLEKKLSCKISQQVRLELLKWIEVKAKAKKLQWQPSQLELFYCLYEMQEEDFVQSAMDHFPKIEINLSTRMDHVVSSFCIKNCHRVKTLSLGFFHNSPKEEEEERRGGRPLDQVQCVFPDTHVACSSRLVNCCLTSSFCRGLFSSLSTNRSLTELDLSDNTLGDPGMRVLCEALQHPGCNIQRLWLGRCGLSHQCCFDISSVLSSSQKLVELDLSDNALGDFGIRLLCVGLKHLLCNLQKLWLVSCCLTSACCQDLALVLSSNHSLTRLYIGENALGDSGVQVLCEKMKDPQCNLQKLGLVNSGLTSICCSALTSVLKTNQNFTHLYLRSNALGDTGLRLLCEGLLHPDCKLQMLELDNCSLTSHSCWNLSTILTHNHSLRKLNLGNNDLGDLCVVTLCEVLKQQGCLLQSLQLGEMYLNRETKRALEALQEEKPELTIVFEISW
Sequence of Nlrp3/Pycard (Mus musculus) (Q9EPB4 whole entry, looked up): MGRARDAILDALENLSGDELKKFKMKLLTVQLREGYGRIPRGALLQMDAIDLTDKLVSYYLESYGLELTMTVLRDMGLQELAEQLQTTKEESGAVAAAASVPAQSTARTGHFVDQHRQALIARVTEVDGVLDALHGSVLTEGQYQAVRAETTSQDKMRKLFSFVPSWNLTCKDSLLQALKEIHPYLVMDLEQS

As to `CN1CCC(N(C)S(=O)(=O)NC(=O)Nc2c3c(cc4c2CCC4)CCC3)CC1`, the inhibition entry in series [1] is “Active”. The AUC(0-t) came out at 57900 ng·h/mL in series [2] and 14500 ng·h/mL in [6]. For the same compound, the outcome with Mus musculus [3], with Mus musculus [7], with Mus musculus [8] and in the series with Mus musculus [20] was Active. Moreover, the Drug uptake result in series [4] was “Active”; in series [9], “Active”; in series [10] it was “Active”; in series [11] it was “Not_active”. The Activity entry in the series with Mus musculus [5] was “Active; Significant Difference Not Observed”. Moreover, in the series with BMDM, the inhibition result was “inactive”. Besides, the IC50 in series [12] turned out to be 106 nM; in series [15], 23 nM. For the same compound, the outcome in the series on Mus musculus [13], in the series with Mus musculus [14] and in the series with Mus musculus [19] was inactive. The time to peak (Tmax) in [16] was 0.33 h. Besides, the half-life in series [17] is 2.7 h; in series [18], 3.63 h.
